The text below walks through data of PMC10691883, “Efficient One-Pot Synthesis of Novel Caffeic Acid Derivatives as Potential Antimalarials” (Journal of Parasitology Research, 2023).

The subject of series [1] is P. falciparum W2 (CQ-resistant) strain. The experiment in a line: P. falciparum drug susceptibility assay (pLDH), CQ-resistant strain W2. It counts as cell-based. As to conditions: for IC50: Plasmodium falciparum, read-out: P. falciparum IC50 W2; for SIW2: IC50(NHDF)/IC50(W2). The method, then: (§1) P. falciparum cultures were prepared and maintained according to the method of Trager and Jensen, with slight modifications. […] Serial dilutions of the compounds were prepared in 96-well flat-bottomed microplates. […] Parasite growth was determined spectrophotometrically (OD650) by measuring the activity of parasite lactate dehydrogenase (pLDH), according to a modified version of the method of Makler and Hinrichs, in control and compound-treated cultures.

Series [2] relates to P. falciparum D10 (CQ-sensitive) strain. The experiment in a line: P. falciparum drug susceptibility assay (pLDH), CQ-sensitive strain D10. It counts as cell-based. As to conditions: for IC50: Plasmodium falciparum; for SID10: IC50(NHDF)/IC50(D10). How it is done: as §1
Series [3] deals with P. berghei. Further details: method as in PMID 30033538. The settings on record: 100 mg/kg, in vivo; cited from earlier work.
Series [4] concerns NHDF cells (normal human dermal fibroblasts). The settings on record: read-out: Cytotoxicity IC50, MTT; cited from earlier work.
The nature of series [5]: MTT cytotoxicity assay on NHDF cells. As to conditions: human, NHDF cells (normal human dermal fibroblasts). It counts as cell-based. The method, then: NHDF cells were grown in alpha-MEM medium supplemented likewise with 10% FBS, L-glutamine, and antibiotic-antimycotic. Cultures were maintained at 37°C, in a humidified Innova CO-180 incubator (New Brunswick Scientific, Edison, NJ, USA) in an atmosphere containing 5% CO2. The cytotoxic effects of CA derivatives were evaluated as described in literature using the standard MTT assay. Briefly, NHDF cells were seeded in a 96-well plate at a density of 5 × 10^3 cells per well in an alpha-MEM medium. Cells were grown overnight and subsequently exposed to the different concentrations of tested compounds dissolved in DMSO. An equivalent volume of DMSO was used as a negative control. After 72 h of incubation, media containing the test compounds were removed, the cells were washed with sterile PBS, and 50 μL of MTT solution (0.5 mg/mL stock solution was 10 times diluted in the appropriate culture medium) was added to each well for 3 h at 37°C. Subsequently, the MTT solution was removed, the formazan crystals were solubilized in DMSO, and absorbance was recorded using an Asys UVM 340 multiwell plate reader (Cambridge, UK) at 560 nm with a reference wavelength of 670 nm. The % of cell viability was calculated using the following formula: Cell viability (%) = (AT/AC) × 100, where AT is the absorbance of the treatment well (treated cells) and AC is the absorbance of the control well (not treated cells). GraphPad Prism software for Windows (GraphPad Software, La Jolla, CA, USA) was used to calculate IC50 values.
A general note: Formazan colour is commonly taken as a measure of viable cells.

Series [6] is described as follows: Hemolytic activity against human erythrocytes. As to conditions: freshly isolated human red blood cells (erythrocytes), PBS, 37°C. It is filed as cell-based. The method, then: Hemolytic activity was measured as described by Jaromin et al. Compounds 3 and 4, dissolved in DMSO, were added in a volume corresponding to a final concentration of 12.5 μM and then incubated with freshly isolated human red blood cells in PBS buffer at 37°C for 30 min. After centrifugation, the absorbance was determined at 540 nm, to assess the released hemoglobin. In addition, negative (erythrocytes in PBS buffer), positive (erythrocytes in distilled water), and DMSO controls were also performed. The study protocol was approved by the Bioethics Commission at the Lower Silesian Medical Chamber (1/PNHAB/2018).

Where [7] appears, read: W2 CQ-resistant strain, 72 h, pLDH, mean ± SD.
[8] abbreviates: D10 CQ-sensitive strain, 72 h, pLDH, mean ± SD, read-out: P. falciparum IC50 D10.
Where [9] appears, read: strain not given (D10 and/or W2), read-out: P. falciparum IC50.

Where two headings read alike, the source gives them in different places. A value given as a limit tells only on which side of the number the result lay.

Turning to `CCOC(=O)/C(C)=C/c1ccc(O)c(F)c1` [Compound 5, Ethyl (2E)-3-(3-Fluoro-4-hydroxyphenyl)-2-methylpropenoate], the values for the IC50 in series [1] (setting [7]), in series [2] (setting [8]) and in series [2] (setting [9]) were 131 ± 52.7 µM, 145 ± 53.6 µM and 117 µM, respectively.
Turning to `CCOC(=O)/C=C/c1ccc(O)c(O)c1` [Ethyl caffeate], in series [3], the “P. berghei inhibition growth” value was 55%.
With `O=C(O)/C=C/c1ccc(O)c(O)c1` [CA, (E)-3-(3,4-dihydroxyphenyl)prop-2-enoic acid, reference compound], the IC50 in series [1] (setting [7]) and in series [2] (setting [8]) was above 278 µM each time.
Consider `CCN(CC)CCCC(C)Nc1ccnc2cc(Cl)ccc12` (centres unmarked) [CQ, chloroquine, reference compound], for which, in series [1], the SIW2 worked out at 178.04. The IC50 (commonly the midpoint of a concentration-inhibition curve) in series [1] (W2, 72 h) was 0.23 ± 0.08 µM; in series [2] (D10, 72 h, read-out: P. falciparum IC50 D10), 0.02 ± 0.01 µM; in series [4], 41 ± 2.29 µM. In series [2], this compound displayed an SID10 of 2047.5.
For `CC(C)(C)OC(=O)/C=C/c1ccc(O)c(O)c1O` [Compound 4, tert-Butyl (2E)-3-(2,3,4-Trihydroxyphenyl)-propenoate], the melting point (as a rule, the temperature, or range, at which the solid turns liquid) came out at 175 °C. The compound also displayed an IC50 at 72 h in series [5] of 90.3 ± 10.3 µM. This compound came in with a hemolysis at 30 min, 12.5 µM in series [6] of 52.9 ± 2.93%. Besides, in series [1] (CQ-resistant strain, 4 compared with 1), the “fold decrease of IC50 versus compound 1” value is 7.9 times. Besides, in series [1], the SIW2 came out at 8.24. Further, the IC50 in series [1] (setting [7]) amounted to 11 ± 4.88 µM. Besides, the SID10 in series [2] was 7.42. Also, the IC50 in series [2] (setting [8]) amounted to 12.2 ± 4.9 µM. Also, in series [2] (setting [9]), the IC50 was in the range of 11 to 12.7 µM.
On to `CC(C)(C)OC(=O)/C=C/c1ccc(O)cc1O` [Compound 1, tert-Butyl (2E)-3-(2,4-Dihydroxyphenyl)-propenoate], for which the IC50 at 72 h in series [5] stood at 249.8 ± 0.51 µM. In series [1], this compound yielded an SIW2 of 2.89. In addition, the IC50 in series [1] (setting [7]) is 86.4 ± 27.4 µM; in series [2] (setting [8]) it was 28.6 ± 1.94 µM. For the same compound, in series [1] (ratio IC50 W2 / IC50 D10), the “RI (resistance index)” value was 3.02. Also, in series [2], the SID10 is 8.73.
For the compound `CCOC(=O)/C=C/c1ccc(O)c(O)c1O` [Compound 2, Ethyl (2E)-3-(2,3,4-Trihydroxyphenyl)-propenoate], the melting point fell in the range of 172 to 173 °C. Besides, in series [5], the IC50 at 72 h was determined as 115 ± 1.76 µM. For the same compound, the SIW2 in series [1] was determined as 2.98. Also, in series [1] (setting [7]), the IC50 amounted to 38.8 ± 17.8 µM. Also, the SID10 in series [2] was determined as 2.74. Also, the IC50 in series [2] (setting [8]) stood at 42.1 ± 9.12 µM.
In turn, `CC(C)(C)OC(=O)/C=C/c1ccc(O)c(F)c1` [Compound 6, tert-Butyl (2E)-3-(3-Fluoro-4-hydroxyphenyl)-propenoate] showed a melting point of 88.3 °C. In series [5], it took 229 ± 7.57 µM to reach half-maximal inhibition (IC50 at 72 h). In series [1], this compound gave an SIW2 of 1.95. Further, in series [1] (setting [7]), the IC50 is 117 ± 35.9 µM. The compound further gave an SID10 in series [2] of 1.77. In addition, the IC50 in series [2] (setting [8]) is 129 ± 59.6 µM. In series [2] (setting [9]), the IC50 is 145 µM.
For `CCOC(=O)/C(C)=C/c1ccc(O)c(O)c1O` [Compound 3, Ethyl (2E)-3-(2,3,4-Trihydroxyphenyl)-2-methylpropenoate], the melting point was found to be 140 °C. This compound also gave an IC50 at 72 h in series [5] of 79.2 ± 6.14 µM. Moreover, the hemolysis at 30 min, 12.5 µM in series [6] was 4.13 ± 0.85%. In addition, the SIW2 in series [1] came out at 7.02. Besides, the concentration for half-maximal inhibition (IC50) in series [1] (setting [7]) came out at 11.3 ± 4.81 µM. Moreover, the SID10 in series [2] was determined as 6.23. Also, the IC50 in series [2] (setting [8]) was determined as 12.7 ± 2.33 µM. Further, the IC50 in series [2] (setting [9]) was 11 to 12.7 µM.
